pIC50, pKi: −log10 of the molar value.
What was measured:
MOLT-4 cells = assay: MOLT-4 cell viability using MTT assay; assay type: cell-based; details: Homo sapiens, MOLT-4, 48 h, 48 h exposure
Protocol: MTT colorimetric assay is based on the mitochondrial reduction of tetrazolium salt by living cells.
Cells were cultured at 37° C. in a humidified atmosphere containing 5% CO2. […] At the end of incubation time, 15 μL of MTT solution (5 mg/ml) were added per well and the cells were incubated for another 4 h. […] IC50s were calculated using standard four-parametric curve fitting.

[1] = molecular target: His-His-(EK)-hsBCLXL(2-197)[N197C] (Homo sapiens (Human), UniProt Q07817, N197C); assay: Fluorescence quenching assay; assay type: binding; details: 1 nM Cy5-labelled protein, 400 nM PUMA peptide, 2 hours at 23° C.; KI determined from IC50
His-His-(EK)-hsBCLXL(2-197)[N197C], sequence (Q07817 2-197 N197C): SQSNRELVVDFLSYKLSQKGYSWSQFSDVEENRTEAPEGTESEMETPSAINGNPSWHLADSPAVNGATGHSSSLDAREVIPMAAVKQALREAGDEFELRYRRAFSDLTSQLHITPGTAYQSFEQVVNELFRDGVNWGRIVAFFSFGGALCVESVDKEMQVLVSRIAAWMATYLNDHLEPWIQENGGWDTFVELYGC
From the text: Fluorescence quenching assay measures the change in fluorescence intensity of C-terminally Cy5-labelled BCL-xL protein, His-His-(EK)-hsBCLXL(2-197)[N197C] (UniProtKB®
which is linked in C-terminal region to the amino acid X which corresponds to a cysteine labelled on the sulfur with Sulfo-Cyanine5 from Lumiprobe GmbH catalogue number 13380, upon binding of a C-terminally labelled peptide derived from PUMA (UniProtKB® primary accession number Q9BXH1) having an aminoacid sequence (SEQ ID:04): [[…]] which is linked in C-terminal region to the amino acid X′ where X′ is cysteine labelled on the sulfur with TQ5WS from AAT Bioquest catalogue number 2079.
The addition of a compound which binds competitively to the same site as the peptide will result in an increase in the fluorescence intensity of the protein due to displacement of the fluorescence quencher.
An 11-point serial dilution of each compound was prepared in DMSO, the final buffer conditions were 10 mM 4-(2-hydroxyethyl)-1-piperazineethanesulfonic acid [HEPES], 150 mM NaCl, 0.05% Tween 20, pH 7.4 and 5% DMSO. The final protein concentration in the assay was 1 nM with the peptide present at 400 nM. The experiments were incubated for 2 hours at 23° C. before fluorescence intensity was measured on a Biotek SynergyNeo plate reader (Excitation 620 nm, emission 680 nm). […] The K1 values were determined from the IC50 values according to Cer et al, Nucleic Acids Res, 2009, Jul. 1; 37 (WebServer issue): W441-W445.

| Structure (SMILES) | pIC50 (MOLT-4 cells) | pKi [1] |
| --- | --- | --- |
| CNCC#Cc1ccc(OCCCc2sc(N3CCCc4c3nnc(Nc3nc5ccccc5s3)c4C)nc2C(=O)O)cc1 [Example 80, 2-[3-(1,3-Benzothiazol-2-ylamino)-4-methyl-6,7-dihydro-5H-pyrido[2,3-c]pyridazin-8-yl]-5-[3-[4-[3-(methylamino)prop-1-ynyl]phenoxy]propyl]thiazole-4-carboxylic acid] | 9.24 | 11.19 |
| Cc1c(Nc2nc3ccccc3s2)nnc2c1CCCN2c1nc(C(=O)O)c(CCCOc2ccc(C#CC(C)(C)N3CCCC3)cc2F)s1 [Example 81, 2-[3-(1,3-Benzothiazol-2-ylamino)-4-methyl-6,7-dihydro-5H-pyrido[2,3-c]pyridazin-8-yl]-5-[3-[2-fluoro-4-(3-methyl-3-pyrrolidin-1-yl-but-1-ynyl)phenoxy]propyl]thiazole-4-carboxylic acid] | 9.76 | 10.82 |
| Cc1c(Nc2nc3cccc(F)c3s2)nnc2c1CCCN2c1nc(C(=O)O)c(CCCOc2ccc(C#CCN(C)C)cc2F)s1 [Example 82, 5-[3-[4-[3-(Dimethylamino)prop-1-ynyl]-2-fluoro-phenoxy]propyl]-2-[3-[(7-fluoro-1,3-benzothiazol-2-yl)amino]-4-methyl-6,7-dihydro-5H-pyrido[2,3-c]pyridazin-8-yl]thiazole-4-carboxylic acid] | 8.92 | 10.64 |
| Cc1c(Nc2nc3ccccc3s2)nnc2c1CCCN2c1nc(C(=O)O)c(CCCOc2ccc(C#CC(C)(C)N(C)C)cc2F)s1 [Example 83, 2-[3-(1,3-Benzothiazol-2-ylamino)-4-methyl-6,7-dihydro-5H-pyrido[2,3-c]pyridazin-8-yl]-5-[3-[4-[3-(dimethylamino)-3-methyl-but-1-ynyl]-2-fluoro-phenoxy]propyl]thiazole-4-carboxylic acid] | 9.24 | 10.59 |
| Cc1c(Nc2nc3ccccc3s2)nnc2c1CCCN2c1nc(C(=O)O)c(CCCOc2ccc(C#CC3(N(C)C)CCCCC3)cc2F)s1 [Example 84, 2-[3-(1,3-Benzothiazol-2-ylamino)-4-methyl-6,7-dihydro-5H-pyrido[2,3-c]pyridazin-8-yl]-5-[3-[4-[2-[1-(dimethylamino)cyclohexyl]ethynyl]-2-fluoro-phenoxy]propyl]thiazole-4-carboxylic acid] | 8.74 | 10.28 |
| CCN(CC)CC#Cc1ccc(OCCCc2sc(N3CCCc4c3nnc(Nc3nc5ccccc5s3)c4C)nc2C(=O)O)c(F)c1 [Example 85, 2-[3-(1,3-Benzothiazol-2-ylamino)-4-methyl-6,7-dihydro-5H-pyrido[2,3-c]pyridazin-8-yl]-5-[3-[4-[3-(diethylamino)prop-1-ynyl]-2-fluoro-phenoxy]propyl]thiazole-4-carboxylic acid] | 9.38 | 10.36 |
| Cc1c(Nc2nc3ccccc3s2)nnc2c1CCCN2c1nc(C(=O)O)c(CCCOc2ccc(C#CCN(C(C)C)C(C)C)cc2F)s1 [Example 86, 2-[3-(1,3-Benzothiazol-2-ylamino)-4-methyl-6,7-dihydro-5H-pyrido[2,3-c]pyridazin-8-yl]-5-[3-[4-[3-(diisopropylamino)prop-1-ynyl]-2-fluoro-phenoxy]propyl]thiazole-4-carboxylic acid] | 8.82 | 10.72 |
| CCN(C)CC#Cc1ccc(OCCCc2sc(N3CCCc4c3nnc(Nc3nc5ccccc5s3)c4C)nc2C(=O)O)c(F)c1 [Example 88, 2-[3-(1,3-Benzothiazol-2-ylamino)-4-methyl-6,7-dihydro-5H-pyrido[2,3-c]pyridazin-8-yl]-5-[3-[4-[3-[ethyl(methyl)amino]prop-1-ynyl]-2-fluoro-phenoxy]propyl]thiazole-4-carboxylic acid] | 9.74 | 11.00 |

— US12570648B2, “6,7-dihydro-5H-pyrido[2,3-c]pyridazine derivatives and related compounds as Bcl-xL protein inhibitors and pro-apoptotic agents for treating cancer” (LES LABORATOIRES SERVIER, priority 2019, dated 2026)
